One test has as its target Nonstructural protein 1 (Influenza A virus, UniProt Q194T2). The test is classed as functional, Influenza A virus (A/California/07/2009(H1N1)).
The target of test [1] is Botulinum neurotoxin type A (Clostridium botulinum (strain Hall / ATCC 3502 / NCTC 13319 / Type A), UniProt P0DPI1). In words: High-throughput multiplex microsphere dose response for inhibitors of toxin protease, specifically Botulinum neurotoxin light chain A protease, compounds from Cherry Pick 02. The format is functional. Conditions: read-out: EC50_MICROM.
Sequence of Botulinum neurotoxin type A (P0DPI1 2-448 limits assumed): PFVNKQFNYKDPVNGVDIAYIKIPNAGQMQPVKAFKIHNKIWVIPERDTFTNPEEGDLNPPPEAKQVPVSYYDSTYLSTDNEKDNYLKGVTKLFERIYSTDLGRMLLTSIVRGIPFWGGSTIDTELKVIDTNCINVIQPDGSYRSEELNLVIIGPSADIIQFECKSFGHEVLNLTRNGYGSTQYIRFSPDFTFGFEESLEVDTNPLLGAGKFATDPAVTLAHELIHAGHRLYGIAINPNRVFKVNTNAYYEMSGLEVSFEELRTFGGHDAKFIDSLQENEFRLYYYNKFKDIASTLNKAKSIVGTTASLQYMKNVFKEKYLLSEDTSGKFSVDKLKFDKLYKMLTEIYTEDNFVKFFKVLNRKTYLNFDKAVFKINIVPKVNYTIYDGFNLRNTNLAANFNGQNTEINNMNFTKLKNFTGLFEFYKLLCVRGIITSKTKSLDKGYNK
A further test addresses Lethal factor (Bacillus anthracis, UniProt P15917). In words: High-throughput multiplex microsphere dose response for inhibitors of toxin protease, specifically Lethal Factor protease, compounds from Cherry Pick 02. The format is functional. Conditions: read-out: EC50_MICROM.
Test [2] concerns the target Botulinum neurotoxin type F (Clostridium botulinum, UniProt P30996). As to the kind of experiment: High-throughput multiplex microsphere dose response for inhibitors of toxin protease, specifically Botulinum neurotoxin light chain F protease, compounds from Cherry Pick 02. The format is functional. The note with it: read-out: EC50_MICROM.
Test [3] is described as follows: HeLa cell cytotoxicity, dose response, cytotoxicity control for MgcRacGAP inhibitor project (AID 624300). The format is functional.
The target in test [4] is T1, Rac GTPase-activating protein 1 (Homo sapiens, UniProt Q9H0H5).
T1 sequence (Q9H0H5 whole entry): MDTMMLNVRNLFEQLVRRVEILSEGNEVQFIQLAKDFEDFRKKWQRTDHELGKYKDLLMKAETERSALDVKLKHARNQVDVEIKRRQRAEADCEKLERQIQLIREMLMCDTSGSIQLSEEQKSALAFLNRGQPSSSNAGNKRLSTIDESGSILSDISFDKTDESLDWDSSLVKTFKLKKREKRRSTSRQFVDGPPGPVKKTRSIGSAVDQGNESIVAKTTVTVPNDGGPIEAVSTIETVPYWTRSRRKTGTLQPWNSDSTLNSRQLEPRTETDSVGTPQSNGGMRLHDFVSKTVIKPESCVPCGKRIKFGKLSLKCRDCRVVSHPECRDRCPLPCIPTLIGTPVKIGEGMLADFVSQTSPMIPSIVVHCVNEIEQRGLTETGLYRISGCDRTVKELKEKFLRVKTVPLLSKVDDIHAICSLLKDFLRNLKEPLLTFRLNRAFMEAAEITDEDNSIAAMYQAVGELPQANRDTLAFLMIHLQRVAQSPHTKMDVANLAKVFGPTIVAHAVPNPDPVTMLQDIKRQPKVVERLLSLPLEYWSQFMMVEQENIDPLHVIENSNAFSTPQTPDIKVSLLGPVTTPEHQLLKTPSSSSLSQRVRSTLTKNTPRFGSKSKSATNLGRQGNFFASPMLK
In words: MgcRacGAP GTPase-activating activity inhibitors, confirmation, biochemical, ADP Hunter fluorescence, primary and confirmatory (AID 624330). The format is functional.

Test [5] deals with T2, Histone-lysine N-methyltransferase NSD2 (Homo sapiens, UniProt O96028).
T2 sequence (O96028 whole entry): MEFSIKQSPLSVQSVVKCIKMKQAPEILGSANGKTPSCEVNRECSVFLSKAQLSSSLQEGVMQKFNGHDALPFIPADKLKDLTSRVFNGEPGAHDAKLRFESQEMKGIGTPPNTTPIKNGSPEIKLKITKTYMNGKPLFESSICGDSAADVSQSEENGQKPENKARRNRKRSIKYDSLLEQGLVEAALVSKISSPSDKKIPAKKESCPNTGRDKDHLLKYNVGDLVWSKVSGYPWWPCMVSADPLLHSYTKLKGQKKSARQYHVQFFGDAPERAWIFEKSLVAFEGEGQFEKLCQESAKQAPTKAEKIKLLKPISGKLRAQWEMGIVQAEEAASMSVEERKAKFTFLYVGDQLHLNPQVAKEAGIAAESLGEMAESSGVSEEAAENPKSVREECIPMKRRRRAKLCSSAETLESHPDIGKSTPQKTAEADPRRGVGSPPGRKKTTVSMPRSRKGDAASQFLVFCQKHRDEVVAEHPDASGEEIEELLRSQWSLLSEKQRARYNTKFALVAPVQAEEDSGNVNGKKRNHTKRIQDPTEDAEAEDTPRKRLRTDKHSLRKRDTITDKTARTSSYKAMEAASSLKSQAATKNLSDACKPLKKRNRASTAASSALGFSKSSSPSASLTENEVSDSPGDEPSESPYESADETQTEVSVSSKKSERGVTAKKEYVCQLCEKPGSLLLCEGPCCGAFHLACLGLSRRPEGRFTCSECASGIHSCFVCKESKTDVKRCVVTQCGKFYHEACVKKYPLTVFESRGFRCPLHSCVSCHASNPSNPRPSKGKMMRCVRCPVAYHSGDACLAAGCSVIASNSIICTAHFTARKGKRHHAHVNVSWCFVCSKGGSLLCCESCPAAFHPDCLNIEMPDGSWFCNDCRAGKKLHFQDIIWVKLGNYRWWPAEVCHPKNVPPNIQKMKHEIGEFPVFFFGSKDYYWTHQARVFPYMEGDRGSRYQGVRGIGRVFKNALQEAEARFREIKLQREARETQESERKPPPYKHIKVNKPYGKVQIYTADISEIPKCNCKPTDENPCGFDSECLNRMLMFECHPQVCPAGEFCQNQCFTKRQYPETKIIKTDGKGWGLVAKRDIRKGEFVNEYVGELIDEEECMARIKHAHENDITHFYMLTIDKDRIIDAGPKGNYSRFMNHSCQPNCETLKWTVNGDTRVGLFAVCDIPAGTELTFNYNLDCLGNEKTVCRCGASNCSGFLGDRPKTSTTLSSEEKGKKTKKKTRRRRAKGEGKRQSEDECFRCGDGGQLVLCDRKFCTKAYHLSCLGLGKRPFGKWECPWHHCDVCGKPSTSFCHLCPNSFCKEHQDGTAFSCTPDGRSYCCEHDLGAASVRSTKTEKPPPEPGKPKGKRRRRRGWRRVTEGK
The format is biochemical.

For test [6], the target named is Serine/threonine-protein kinase pim-1 (Homo sapiens, UniProt P11309). The format is functional.
Sequence of Serine/threonine-protein kinase pim-1 (P11309 whole entry): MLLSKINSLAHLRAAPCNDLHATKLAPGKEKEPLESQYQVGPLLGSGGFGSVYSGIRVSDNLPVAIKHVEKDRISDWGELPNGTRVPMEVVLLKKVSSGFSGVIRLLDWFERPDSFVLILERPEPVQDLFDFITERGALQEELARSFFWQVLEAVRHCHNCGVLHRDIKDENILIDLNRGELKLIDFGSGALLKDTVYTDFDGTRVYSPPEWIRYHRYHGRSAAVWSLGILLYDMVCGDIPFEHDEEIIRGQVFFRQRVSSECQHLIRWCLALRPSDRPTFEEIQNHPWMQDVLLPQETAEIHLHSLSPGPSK
Test [7] has as its target Cell division cycle 7-related protein kinase (Homo sapiens, UniProt O00311). The test is classed as functional.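 Further: value obtained from a kinome-wide kinase panel.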
Test [8] has as its target Homeodomain-interacting protein kinase 2 (Homo sapiens, UniProt Q9H2X6). The format is functional.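 Further: measured within a kinome-wide kinase profiling panel, HIPK2 being one panel member.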
Test [9] has as its target Interleukin-1 receptor-associated kinase 4 (Homo sapiens, UniProt Q9NWZ3). The test is classed as functional.
Test [10] addresses Glycogen synthase kinase-3 beta (Homo sapiens, UniProt P49841). The test is classed as functional.
Test [11] deals with cAMP-dependent protein kinase catalytic subunit alpha (Homo sapiens, UniProt P17612). The format is functional.
Test [12] addresses Dual specificity protein kinase CLK4 (Homo sapiens, UniProt Q9HAZ1). The test is classed as functional.
In test [13] the target is Mitogen-activated protein kinase kinase kinase kinase 4 (Homo sapiens, UniProt O95819). The test is classed as functional.
Sequence of Mitogen-activated protein kinase kinase kinase kinase 4 (O95819 whole entry): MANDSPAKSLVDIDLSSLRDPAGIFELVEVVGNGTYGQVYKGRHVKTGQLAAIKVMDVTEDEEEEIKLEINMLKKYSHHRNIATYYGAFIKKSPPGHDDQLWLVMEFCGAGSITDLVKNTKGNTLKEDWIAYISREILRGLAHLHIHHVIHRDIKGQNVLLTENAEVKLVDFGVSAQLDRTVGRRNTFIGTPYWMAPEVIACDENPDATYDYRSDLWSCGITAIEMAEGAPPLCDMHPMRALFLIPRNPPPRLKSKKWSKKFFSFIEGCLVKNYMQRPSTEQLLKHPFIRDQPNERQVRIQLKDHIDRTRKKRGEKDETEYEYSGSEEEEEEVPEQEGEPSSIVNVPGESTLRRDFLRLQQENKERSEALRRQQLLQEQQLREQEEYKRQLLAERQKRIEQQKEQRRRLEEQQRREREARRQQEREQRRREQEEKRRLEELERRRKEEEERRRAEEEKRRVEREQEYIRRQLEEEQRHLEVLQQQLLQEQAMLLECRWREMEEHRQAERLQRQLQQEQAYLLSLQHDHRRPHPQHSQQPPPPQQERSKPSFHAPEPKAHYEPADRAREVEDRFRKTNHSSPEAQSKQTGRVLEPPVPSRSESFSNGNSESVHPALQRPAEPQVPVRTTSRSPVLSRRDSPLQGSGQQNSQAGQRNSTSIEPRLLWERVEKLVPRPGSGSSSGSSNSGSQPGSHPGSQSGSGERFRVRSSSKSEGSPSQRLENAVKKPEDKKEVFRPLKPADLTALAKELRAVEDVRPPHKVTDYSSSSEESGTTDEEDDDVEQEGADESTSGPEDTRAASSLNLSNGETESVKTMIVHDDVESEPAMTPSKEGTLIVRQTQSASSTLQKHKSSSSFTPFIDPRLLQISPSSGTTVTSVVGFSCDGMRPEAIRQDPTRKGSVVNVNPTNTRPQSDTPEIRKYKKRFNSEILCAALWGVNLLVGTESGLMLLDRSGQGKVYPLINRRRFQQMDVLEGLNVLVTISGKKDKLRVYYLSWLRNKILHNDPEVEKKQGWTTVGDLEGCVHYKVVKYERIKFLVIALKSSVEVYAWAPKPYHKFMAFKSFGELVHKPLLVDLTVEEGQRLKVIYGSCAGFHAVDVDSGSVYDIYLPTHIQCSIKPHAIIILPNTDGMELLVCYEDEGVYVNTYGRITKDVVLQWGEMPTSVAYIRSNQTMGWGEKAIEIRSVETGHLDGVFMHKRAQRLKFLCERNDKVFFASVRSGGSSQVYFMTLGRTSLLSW

Activity calls are given as the source filed them.

Sequence of Homeodomain-interacting protein kinase 2 (Q9H2X6 whole entry): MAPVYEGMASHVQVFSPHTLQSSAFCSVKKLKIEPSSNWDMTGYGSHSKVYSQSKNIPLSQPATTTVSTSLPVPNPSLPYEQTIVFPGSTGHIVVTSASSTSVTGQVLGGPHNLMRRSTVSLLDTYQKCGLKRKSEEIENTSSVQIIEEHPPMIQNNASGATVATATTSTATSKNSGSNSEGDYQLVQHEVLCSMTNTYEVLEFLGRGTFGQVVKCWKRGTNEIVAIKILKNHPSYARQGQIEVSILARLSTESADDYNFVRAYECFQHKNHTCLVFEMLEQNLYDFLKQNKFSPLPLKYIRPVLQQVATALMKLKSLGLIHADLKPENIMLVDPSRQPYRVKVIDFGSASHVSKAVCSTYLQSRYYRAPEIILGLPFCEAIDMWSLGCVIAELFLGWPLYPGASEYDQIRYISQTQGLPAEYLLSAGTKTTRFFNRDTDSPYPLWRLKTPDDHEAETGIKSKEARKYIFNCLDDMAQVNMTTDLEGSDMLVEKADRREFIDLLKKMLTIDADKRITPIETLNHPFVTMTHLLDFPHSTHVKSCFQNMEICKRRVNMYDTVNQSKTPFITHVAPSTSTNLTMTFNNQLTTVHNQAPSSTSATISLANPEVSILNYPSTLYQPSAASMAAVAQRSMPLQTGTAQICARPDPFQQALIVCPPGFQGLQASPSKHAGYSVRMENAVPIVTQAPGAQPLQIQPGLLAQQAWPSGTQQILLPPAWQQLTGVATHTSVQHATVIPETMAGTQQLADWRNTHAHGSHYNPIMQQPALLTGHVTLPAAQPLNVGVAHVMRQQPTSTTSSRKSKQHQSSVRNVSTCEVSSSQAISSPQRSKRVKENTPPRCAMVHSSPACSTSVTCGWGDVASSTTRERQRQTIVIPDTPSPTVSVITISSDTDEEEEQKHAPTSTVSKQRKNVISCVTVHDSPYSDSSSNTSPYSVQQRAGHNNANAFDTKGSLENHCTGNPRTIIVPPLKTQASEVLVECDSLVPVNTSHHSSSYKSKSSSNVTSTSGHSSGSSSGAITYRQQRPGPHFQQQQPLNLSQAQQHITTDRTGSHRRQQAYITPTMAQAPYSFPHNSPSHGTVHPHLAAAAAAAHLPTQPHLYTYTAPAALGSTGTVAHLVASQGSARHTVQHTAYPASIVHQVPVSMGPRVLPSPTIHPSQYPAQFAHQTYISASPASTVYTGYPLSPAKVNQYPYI
Sequence of Interleukin-1 receptor-associated kinase 4 (Q9NWZ3 whole entry): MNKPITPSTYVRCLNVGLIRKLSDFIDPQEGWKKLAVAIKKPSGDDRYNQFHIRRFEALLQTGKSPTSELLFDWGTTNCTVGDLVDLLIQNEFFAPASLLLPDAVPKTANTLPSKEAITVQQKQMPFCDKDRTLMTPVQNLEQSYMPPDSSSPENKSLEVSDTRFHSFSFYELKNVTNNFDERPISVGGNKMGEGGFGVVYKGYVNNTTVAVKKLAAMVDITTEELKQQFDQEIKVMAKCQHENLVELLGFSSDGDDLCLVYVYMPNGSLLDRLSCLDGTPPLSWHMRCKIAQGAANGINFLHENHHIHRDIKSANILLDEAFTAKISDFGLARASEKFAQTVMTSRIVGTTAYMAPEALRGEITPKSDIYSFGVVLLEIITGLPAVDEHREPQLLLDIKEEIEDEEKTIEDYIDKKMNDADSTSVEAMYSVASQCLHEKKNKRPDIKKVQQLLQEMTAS
Sequence of Nonstructural protein 1 (Q194T2 whole entry): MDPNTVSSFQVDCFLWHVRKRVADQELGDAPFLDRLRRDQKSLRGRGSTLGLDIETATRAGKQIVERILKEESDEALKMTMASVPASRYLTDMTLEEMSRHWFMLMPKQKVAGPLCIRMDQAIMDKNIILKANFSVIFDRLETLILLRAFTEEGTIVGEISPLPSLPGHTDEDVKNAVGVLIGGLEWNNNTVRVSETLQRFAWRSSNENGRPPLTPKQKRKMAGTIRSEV
Sequence of Glycogen synthase kinase-3 beta (P49841 whole entry): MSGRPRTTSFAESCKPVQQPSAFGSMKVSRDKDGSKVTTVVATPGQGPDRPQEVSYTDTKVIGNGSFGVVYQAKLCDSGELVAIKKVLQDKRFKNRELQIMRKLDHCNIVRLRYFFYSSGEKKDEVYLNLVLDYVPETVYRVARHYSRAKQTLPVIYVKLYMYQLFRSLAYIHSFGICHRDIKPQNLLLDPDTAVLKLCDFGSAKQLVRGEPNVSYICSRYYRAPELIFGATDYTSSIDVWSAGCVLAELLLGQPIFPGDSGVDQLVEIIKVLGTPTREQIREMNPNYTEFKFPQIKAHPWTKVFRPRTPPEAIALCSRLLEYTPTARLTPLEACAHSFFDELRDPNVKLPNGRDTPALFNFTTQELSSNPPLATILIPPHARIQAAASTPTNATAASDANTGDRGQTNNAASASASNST
Sequence of Dual specificity protein kinase CLK4 (Q9HAZ1 whole entry): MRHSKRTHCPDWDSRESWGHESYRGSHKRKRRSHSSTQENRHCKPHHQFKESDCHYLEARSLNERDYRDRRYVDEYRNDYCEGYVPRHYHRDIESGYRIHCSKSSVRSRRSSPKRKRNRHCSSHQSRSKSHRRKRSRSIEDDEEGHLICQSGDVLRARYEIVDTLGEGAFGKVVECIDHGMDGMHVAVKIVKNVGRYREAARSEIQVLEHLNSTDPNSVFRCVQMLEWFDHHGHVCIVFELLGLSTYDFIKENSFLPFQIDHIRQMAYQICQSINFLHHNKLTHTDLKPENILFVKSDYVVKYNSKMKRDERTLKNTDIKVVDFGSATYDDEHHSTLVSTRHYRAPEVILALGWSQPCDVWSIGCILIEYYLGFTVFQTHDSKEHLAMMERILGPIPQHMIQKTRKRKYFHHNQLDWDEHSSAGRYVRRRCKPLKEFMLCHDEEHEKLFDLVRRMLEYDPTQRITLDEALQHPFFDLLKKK

As for `CN(C)c1ccc(/C=C2/C[N+](C)(C)C/C(=C/c3ccc(N(C)C)cc3)C2=O)cc1`, the results for the IC50 (at Nonstructural protein 1; in [4]) were 6590 nM (active) and 82900 nM (active), respectively. In addition, the EC50 in [1] is 1600 nM (active); on Lethal factor, 600 nM (active); in test [2] it was > 20000 nM (inactive). In [3], the CC50 was 100000 nM (active). Moreover, in [5], the AC50 is 11900 nM (active).
On to `COCCN(CCOC)c1cc(-c2c[nH]c3ncccc23)cc(Cl)n1`, for which the Ki in test [6] was 1260 nM (active); in test [7] it was 10 nM (active); in test [8], 251 nM (active); in test [9], 2510 nM (active); in test [10], 1000 nM (active); in test [11], 501 nM (active). In addition, the Ki in test [12] is 10 nM (active); in test [13], 20 nM (active).

The IC50 is the midpoint of a concentration-inhibition curve. One may read the CC50 as the concentration that lowers cell viability or growth by half. For orientation: AC50 means the concentration at which the activity in the assay is half-maximal. The Ki is a dissociation constant, usually derived from enzyme kinetics or from competition with a known ligand.
